Test results published in ChEMBL document CHEMBL1201862, “PubChem BioAssay data set” (2004).
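How tested: cells in 96-well plates exposed to compound for 48 hours at five concentrations. GI50 marks 50% less growth.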 The source made the active and inactive calls. Cut-off read from the data, not from the text of the source: active = GI50 up to about 1.1 µM and inactive = higher.

Experiments:
Experiment in all cases: growth of human tumour cells (NCI), 48 h
[1] = system: 786-0
[2] = system: A498
[3] = system: A549
[4] = system: ACHN
[5] = system: BT-549
[6] = system: CAKI-1
[7] = system: CCRF-CEM
[8] = system: COLO 205
[9] = system: DU-145
[10] = system: EKVX
[11] = system: HCC 2998
[12] = system: HCT-116
[13] = system: HCT-15
[14] = system: HL-60
[15] = system: HOP-92
[16] = system: HT-29
[17] = system: Hs-578T
[18] = system: IGROV-1
[19] = system: K562
[20] = system: KM12
[21] = system: LOX IMVI
[22] = system: M14
[23] = system: MCF7
[24] = system: MDA-MB-231
[25] = system: MDA-MB-435
[26] = system: MDA-N
[27] = system: MOLT-4
[28] = system: Malme-3M
[29] = system: NCI-H226
[30] = system: NCI-H23
[31] = system: NCI-H460
[32] = system: NCI-H522
[33] = system: NCI/ADR-RES
[34] = system: OVCAR-3
[35] = system: OVCAR-4
[36] = system: OVCAR-5
[37] = system: OVCAR-8
[38] = system: PC-3
[39] = system: RPMI-8226
[40] = system: SF-268
[41] = system: SF-295
[42] = system: SF-539
[43] = system: SK-MEL-28
[44] = system: SK-MEL-2
[45] = system: SK-MEL-5
[46] = system: SK-OV-3
[47] = system: SN12C
[48] = system: SNB-19
[49] = system: SR
[50] = system: SW-620
[51] = system: T47D
[52] = system: TK-10
[53] = system: U-251
[54] = system: UACC-257
[55] = system: UACC-62
[56] = system: UO-31
[57] = system: HOP-62
[58] = system: RXF 393
[59] = system: SNB-75

Structure (SMILES): CC(=O)OCCn1c(Cc2ccc([N+](=O)[O-])cc2)nn(C(C)=O)c1=O
- GI50 [1]: > 100 µM (inactive)
- GI50 [2]: > 100 µM (inactive)
- GI50 [3]: > 100 µM (inactive)
- GI50 [4]: > 100 µM (inactive)
- GI50 [5]: > 100 µM (inactive)
- GI50 [6]: > 100 µM (inactive)
- GI50 [7]: > 100 µM (inactive)
- GI50 [8]: > 100 µM (inactive)
- GI50 [9]: > 100 µM (inactive)
- GI50 [10]: > 100 µM (inactive)
- GI50 [11]: > 100 µM (inactive)
- GI50 [12]: > 100 µM (inactive)
- GI50 [13]: > 100 µM
- GI50 [14]: > 100 µM (inactive)
- GI50 [15]: > 100 µM (inactive)
- GI50 [16]: > 100 µM (inactive)
- GI50 [17]: > 100 µM (inactive)
- GI50 [18]: > 100 µM (inactive)
- GI50 [19]: > 100 µM (inactive)
- GI50 [20]: > 100 µM (inactive)
- GI50 [21]: > 100 µM (inactive)
- GI50 [22]: > 100 µM (inactive)
- GI50 [23]: > 100 µM (inactive)
- GI50 [24]: > 100 µM (inactive)
- GI50 [25]: > 100 µM (inactive)
- GI50 [26]: > 100 µM (inactive)
- GI50 [27]: > 100 µM (inactive)
- GI50 [28]: > 100 µM (inactive)
- GI50 [29]: > 100 µM (inactive)
- GI50 [30]: > 100 µM (inactive)
- GI50 [31]: > 100 µM (inactive)
- GI50 [32]: > 100 µM (inactive)
- GI50 [33]: > 100 µM (inactive)
- GI50 [34]: > 100 µM (inactive)
- GI50 [35]: > 100 µM (inactive)
- GI50 [36]: > 100 µM (inactive)
- GI50 [37]: > 100 µM (inactive)
- GI50 [38]: > 100 µM (inactive)
- GI50 [39]: > 100 µM (inactive)
- GI50 [40]: > 100 µM (inactive)
- GI50 [41]: > 100 µM (inactive)
- GI50 [42]: > 100 µM (inactive)
- GI50 [43]: > 100 µM (inactive)
- GI50 [44]: > 100 µM (inactive)
- GI50 [45]: > 100 µM (inactive)
- GI50 [46]: > 100 µM (inactive)
- GI50 [47]: > 100 µM (inactive)
- GI50 [48]: > 100 µM (inactive)
- GI50 [49]: > 100 µM (inactive)
- GI50 [50]: > 100 µM (inactive)
- GI50 [51]: > 100 µM (inactive)
- GI50 [52]: > 100 µM (inactive)
- GI50 [53]: > 100 µM (inactive)
- GI50 [54]: > 100 µM (inactive)
- GI50 [55]: > 100 µM (inactive)
- GI50 [56]: > 100 µM (inactive)

Structure (SMILES): COc1ccc2cc(/C=N/NC(=O)Nc3ccccc3)ccc2c1
- GI50 [2]: > 100 µM (inactive)
- GI50 [5]: > 100 µM (inactive)
- GI50 [6]: > 100 µM (inactive)
- GI50 [7]: > 100 µM (inactive)
- GI50 [8]: > 100 µM (inactive)
- GI50 [9]: > 100 µM (inactive)
- GI50 [11]: > 100 µM (inactive)
- GI50 [12]: > 100 µM (inactive)
- GI50 [13]: > 100 µM
- GI50 [14]: > 100 µM (inactive)
- GI50 [57]: > 100 µM (inactive)
- GI50 [15]: > 100 µM (inactive)
- GI50 [16]: > 100 µM (inactive)
- GI50 [17]: > 100 µM (inactive)
- GI50 [18]: > 100 µM (inactive)
- GI50 [19]: > 100 µM (inactive)
- GI50 [20]: > 100 µM (inactive)
- GI50 [21]: > 100 µM (inactive)
- GI50 [22]: > 100 µM (inactive)
- GI50 [23]: > 100 µM (inactive)
- GI50 [24]: 81.3 µM (inactive)
- GI50 [25]: > 100 µM (inactive)
- GI50 [26]: > 100 µM (inactive)
- GI50 [27]: > 100 µM (inactive)
- GI50 [28]: > 100 µM (inactive)
- GI50 [29]: > 100 µM (inactive)
- GI50 [30]: > 100 µM (inactive)
- GI50 [31]: > 100 µM (inactive)
- GI50 [33]: > 100 µM (inactive)
- GI50 [34]: > 100 µM (inactive)
- GI50 [35]: > 100 µM (inactive)
- GI50 [36]: > 100 µM (inactive)
- GI50 [37]: > 100 µM (inactive)
- GI50 [38]: > 100 µM (inactive)
- GI50 [39]: > 100 µM (inactive)
- GI50 [58]: > 10 µM (inactive)
- GI50 [41]: > 100 µM (inactive)
- GI50 [43]: > 10 µM (inactive)
- GI50 [44]: > 100 µM (inactive)
- GI50 [45]: > 100 µM (inactive)
- GI50 [46]: > 100 µM (inactive)
- GI50 [47]: > 100 µM (inactive)
- GI50 [48]: > 100 µM (inactive)
- GI50 [59]: > 100 µM (inactive)
- GI50 [49]: > 100 µM (inactive)
- GI50 [50]: > 100 µM (inactive)
- GI50 [51]: > 100 µM (inactive)
- GI50 [52]: > 100 µM (inactive)
- GI50 [53]: > 100 µM (inactive)
- GI50 [54]: > 100 µM (inactive)
- GI50 [55]: > 100 µM (inactive)
- GI50 [56]: > 100 µM (inactive)

Structure (SMILES): CC1(C)CCC2(C(=O)O)C(O)CC3(C)C(=CCC4C5(C)CCC(OC6OCC(O)C(O)C6OC6OCC(O)C(O)C6OC6OCC(O)C(OC7OC(CO)C(O)C(O)C7O)C6O)C(C)(C)C5CCC43C)C2C1 (stereo not given)
- GI50 [1]: > 100 µM (inactive)
- GI50 [2]: 26.9 µM (inactive)
- GI50 [3]: 33.7 µM (inactive)
- GI50 [4]: 35.1 µM (inactive)
- GI50 [5]: 29.7 µM (inactive)
- GI50 [6]: > 100 µM (inactive)
- GI50 [7]: 31 µM (inactive)
- GI50 [8]: > 100 µM (inactive)
- GI50 [9]: > 100 µM (inactive)
- GI50 [10]: 37.9 µM (inactive)
- GI50 [11]: 40.8 µM (inactive)
- GI50 [12]: > 100 µM (inactive)
- GI50 [13]: > 100 µM
- GI50 [14]: 24.7 µM (inactive)
- GI50 [57]: > 100 µM (inactive)
- GI50 [15]: 29.4 µM (inactive)
- GI50 [16]: > 100 µM (inactive)
- GI50 [17]: 28.1 µM (inactive)
- GI50 [18]: > 100 µM (inactive)
- GI50 [19]: 25.6 µM (inactive)
- GI50 [20]: 21.7 µM (inactive)
- GI50 [21]: 47.5 µM (inactive)
- GI50 [22]: 40.1 µM (inactive)
- GI50 [23]: > 100 µM (inactive)
- GI50 [24]: > 100 µM (inactive)
- GI50 [25]: 28.4 µM (inactive)
- GI50 [26]: 20.8 µM (inactive)
- GI50 [28]: 27.2 µM (inactive)
- GI50 [29]: 23.7 µM (inactive)
- GI50 [30]: 21 µM (inactive)
- GI50 [31]: > 100 µM (inactive)
- GI50 [32]: 19.8 µM (inactive)
- GI50 [33]: > 100 µM (inactive)
- GI50 [34]: > 100 µM (inactive)
- GI50 [35]: 28.5 µM (inactive)
- GI50 [36]: 33.8 µM (inactive)
- GI50 [37]: > 100 µM (inactive)
- GI50 [38]: 44.6 µM (inactive)
- GI50 [58]: 20 µM (inactive)
- GI50 [40]: 21.8 µM (inactive)
- GI50 [41]: 20.3 µM (inactive)
- GI50 [42]: > 100 µM (inactive)
- GI50 [43]: 36.5 µM (inactive)
- GI50 [44]: 24.5 µM (inactive)
- GI50 [45]: > 100 µM (inactive)
- GI50 [46]: 19.8 µM (inactive)
- GI50 [47]: 23.3 µM (inactive)
- GI50 [48]: 20 µM (inactive)
- GI50 [59]: 17.9 µM (inactive)
- GI50 [49]: 4.21 µM (inactive)
- GI50 [50]: 39 µM (inactive)
- GI50 [51]: 97.1 µM (inactive)
- GI50 [52]: > 100 µM (inactive)
- GI50 [53]: 33.7 µM (inactive)
- GI50 [54]: 76.4 µM (inactive)
- GI50 [55]: 31.7 µM (inactive)
- GI50 [56]: 17.3 µM (inactive)
